In PMC7248712 (2020):

What was measured:
[1] = tested on: poly C (RNA, polymer) C; experiment: fluorimetric titration; details: Na+ (sodium cacodylate, I = 0.05 M), pH 7.0, 1 µM compound
[2] = tested on: poly U (RNA, polymer) U; experiment: fluorimetric titration, Scatchard (McGhee-von Hippel) fit; details: Na+ (sodium cacodylate, I = 0.05 M), pH 7.0, 1 µM compound, n fixed 0.5 per polynucleotide base
[3] = tested on: poly (dAdT)2 (DNA, polymer) AT; experiment: as above; details: Na+ (sodium cacodylate, I = 0.05 M), pH 7.0, room temperature, 1 µM compound, n fixed 0.2 per polynucleotide base
[4] = tested on: poly A (RNA, polymer) A; experiment: as above; details: Na+ (sodium cacodylate, I = 0.05 M), pH 7.0, 1 µM compound, n fixed 0.5 per polynucleotide base
[5] = tested on: poly A-poly U (RNA, polymer) A/U; experiment: as above; details: Na+ (sodium cacodylate, I = 0.05 M), pH 7.0, room temperature, 1 µM compound, n fixed 0.2 per polynucleotide base
[6] = tested on: poly (dAdT)2 (DNA, polymer) AT; experiment: fluorimetric titration; details: Na+ (sodium cacodylate, I = 0.05 M); pH 7.0, 1 µM compound; up to 100-fold excess of polynucleotide bases
[7] = tested on: poly G (RNA, polymer) G; experiment: fluorimetric titration; details: Na+ (sodium cacodylate, I = 0.05 M); pH 7.0, 1 µM compound; up to 100-fold excess of polynucleotide bases
[8] = tested on: poly A (RNA, polymer) A; experiment: fluorimetric titration; details: Na+ (sodium cacodylate, I = 0.05 M); pH 7.0, 1 µM compound; up to 100-fold excess of polynucleotide bases
[9] = tested on: poly U (RNA, polymer) U; experiment: fluorimetric titration; details: Na+ (sodium cacodylate, I = 0.05 M); pH 7.0, 1 µM compound; up to 100-fold excess of polynucleotide bases
[10] = tested on: poly A-poly U (RNA, polymer) A/U; experiment: fluorimetric titration; details: Na+ (sodium cacodylate, I = 0.05 M); pH 7.0, 1 µM compound; up to 100-fold excess of polynucleotide bases

Row | binding ([1]; emission change too small to fit, authors state binding not supported) | log Ks [2] | log Ks [3] | log Ks [4] | log Ks [5] | binding [6] | binding [7] | binding ([1]; up to 100-fold excess of polynucleotide bases) | binding [8] | binding [9] | binding [10] | Compound
1 | no | 4.7 | 5.7 | 5.2 |  |  |  |  |  |  |  | COC(=O)[C@H](CCCCNC(=O)CCCc1ccc2ccc3cccc4ccc1c2c34)n1cc(Cn2cc3c4c(ncnc42)Nc2ncccc2-3)nn1
2 |  |  | 5.0 |  | 5.5 |  |  |  |  |  |  | COC(=O)[C@H](CCCCNC(=O)c1ccc2ccc3cccc4ccc1c2c34)n1cc(Cn2cc3c4c(ncnc42)Nc2ncccc2-3)nn1
3 |  |  |  |  |  | no | no | no | no | no | no | NCCCC[C@@H](C(=O)O)n1cc(Cn2cc3c4c(ncnc42)Nc2ncccc2-3)nn1
